From ChEMBL document CHEMBL1128387, “Sigma ligands with subnanomolar affinity and preference for the sigma 2 binding site. 2. Spiro-joined benzofuran, isobenzofuran, and benzopyran piperidines” (J Med Chem, 1995)

What was measured:
[1] = target: Sigma non-opioid intracellular receptor 1 (Rattus norvegicus, UniProt Q9R0C9); experiment: Compound was evaluated for the binding affinity towards Sigma receptor type 1 using radioligand ([3H]-(+)- Pentazocine) binding assay.
[2] = target: Sigma intracellular receptor 2 (Rattus norvegicus, UniProt Q5U3Y7); experiment: Binding affinity towards Sigma receptor type 2 in whole rat brain homogenates except cerebellum using radioligand ([3H]DTG) binding assay.; type: tissue-based
Chain of Sigma intracellular receptor 2 (Q5U3Y7 whole entry, looked up): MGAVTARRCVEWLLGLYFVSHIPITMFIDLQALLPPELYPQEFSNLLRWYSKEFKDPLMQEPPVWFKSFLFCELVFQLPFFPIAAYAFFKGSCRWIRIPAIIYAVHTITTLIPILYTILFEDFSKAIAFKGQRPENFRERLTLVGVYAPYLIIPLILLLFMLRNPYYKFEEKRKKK

Chain of Sigma non-opioid intracellular receptor 1 (Q9R0C9 whole entry): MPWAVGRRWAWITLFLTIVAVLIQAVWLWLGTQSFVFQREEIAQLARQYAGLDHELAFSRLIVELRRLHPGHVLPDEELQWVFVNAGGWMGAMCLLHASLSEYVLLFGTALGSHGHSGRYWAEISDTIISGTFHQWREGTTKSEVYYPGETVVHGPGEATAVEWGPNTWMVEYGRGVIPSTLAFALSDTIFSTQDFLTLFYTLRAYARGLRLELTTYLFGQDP

Fc1ccc(-n2cc(CCCCN3CCC4(CC3)SCc3ccccc34)c3ccccc32)cc1
IC50 [1]: 35 nM

Fc1ccc(-n2cc(CCCCN3CCC4(CC3)OCc3cccc(F)c34)c3ccccc32)cc1
IC50 [1]: 150 nM

CCN1CCC2(CC1)OCc1ccccc12
IC50 [1]: 140 nM | IC50 [2]: 270 nM

Fc1ccc(-n2cc(CCCCN3CCC4(CC3)Cc3ccccc3O4)c3ccccc32)cc1
IC50 [1]: 360 nM

c1ccc(CN2CCC3(CCCc4ccccc43)CC2)cc1
IC50 [2]: 12 nM

c1ccc(CCCCN2CCC3(CC2)OCc2ccccc23)cc1
IC50 [1]: 0.27 nM

Fc1ccc(-n2cc(CCCCN3CCC4(CC3)COc3ccccc34)c3ccccc32)cc1
IC50 [1]: 3.8 nM

Fc1ccc(-n2cc(CCCCN3CCC4(CC3)COc3ccccc3C4)c3ccccc32)cc1
IC50 [1]: 200 nM

Fc1ccc(-n2cc(CCCCN3CCC4(CCOc5ccccc54)CC3)c3ccccc32)cc1
IC50 [1]: 7 nM

c1ccc2c(c1)COC21CCN(CCCOC2CCCCC2)CC1
IC50 [1]: 0.4 nM

Fc1ccc(-n2cc(CCCCN3CCC4(CC3)OCc3c(F)cccc34)c3ccccc32)cc1
IC50 [1]: 290 nM

c1ccc(CCCN2CCC3(CC2)OCc2ccccc23)cc1
IC50 [1]: 0.56 nM

Fc1ccc(-n2cc(CCCCN3CCC4(CC3)OCc3c(C(F)(F)F)cccc34)c3ccccc32)cc1
IC50 [1]: 180 nM

Fc1ccc(-n2cc(CCCCN3CCC4(CC3)Oc3ccccc3O4)c3ccccc32)cc1
IC50 [1]: 430 nM

CC(C)N1CCC2(CC1)OCc1ccccc12
IC50 [1]: 31 nM | IC50 [2]: 49 nM

c1ccc2c(c1)COC21CCN(CCCCC2CCCCC2)CC1
IC50 [1]: 1.5 nM

Fc1ccc(-n2cc(CCCCN3CCC4(CC3)Cc3ccccc3CO4)c3ccccc32)cc1
IC50 [1]: 23 nM

Fc1ccc(-n2cc(CCCCN3CCC4(CC3)COCc3ccccc34)c3ccccc32)cc1
IC50 [1]: 3.4 nM

CCCN1CCC2(CC1)OCc1ccccc12
IC50 [1]: 4.7 nM | IC50 [2]: 23 nM

Cc1ccc2c(c1)COC21CCN(CCCCc2cn(-c3ccc(F)cc3)c3ccccc23)CC1
IC50 [1]: 9.5 nM | IC50 [2]: 2.3 nM

c1ccc(CCCCCN2CCC3(CC2)OCc2ccccc23)cc1
IC50 [1]: 0.82 nM

c1ccc2c(c1)COC21CCNCC1
IC50 [1]: 630 nM | IC50 [2]: 11000 nM

c1ccc(CCN2CCC3(CC2)OCc2ccccc23)cc1
IC50 [1]: 2.2 nM

Fc1ccc(-n2cc(CCCCN3CCC4(CC3)OCCc3ccccc34)c3ccccc32)cc1
IC50 [1]: 53 nM
